The test system of one data set is db/db mice. Briefly: Oral glucose tolerance test. Conditions: fasted db/db mice, 2 g/kg glucose orally 30 minutes after substance. The class given is in vivo. The method, then: Fasted db/db mice 7 to 9 weeks old (Janvier, France) are weighed and blood is taken from the tip of the tail. This blood is used for the first measurement of glucose on the basis of which the animals are randomised and divided into groups. The test substance to be tested may be given either orally or i.p. as a suspension in 0.5% Natrosol. 30 minutes after the administration of the substance the animals are given orally 2 g/kg glucose in a volume of 0.1 ml/100 g body weight dissolved in NaCl solution. Subsequently, the glucose values are determined from the tail blood using a glucometer (Ultra OneTouch, Lifescan) at specific time intervals [30, 60, 120 and 180 minutes after oral administration of the glucose].

Another data set concerns mice. The data set can be described thus: Tolerability after oral administration to mice. Conditions: oral administration of 10 mg/kg to mice. The data set is classed as in vivo.

In the case of `CC(=O)c1ccc2c(c1)/C(=C(/Nc1ccc(CN(C)C)cc1)c1ccc3c(c1)OCCO3)C(=O)N2` [Example 1.051, 5-acetyl-3-{[4-(dimethylamino-methyl)-phenylamino]-(2,3-dihydro-benzo[1,4]-dioxin-6-yl)-methylidene}-2-indolinone], in the data set on db/db mice, the “activity in the oral glucose tolerance test” value is “significant activity”. Moreover, in the data set with mice, the “changes in the animals' behaviour” value is recorded as “no changes were observed”.

For the origin of these results see patent US7176231B2, “Aryl-containing 5-acylindolinones, the preparation thereof and their use as medicaments” (Boehringer Ingelheim International GmbH, priority 2004, dated 2007).
